The target of assay [1] is T1, electric eel AChE (Electrophorus electricus, UniProt O42275). The assay can be described thus: biochemical.
The target of assay [2] is T1, electric eel AChE. The assay can be described thus: Kinetic analysis of AChE inhibition. It is filed as biochemical.

pIC50, pKi: −log10 of the molar value.

As usually defined, the pIC50 is −log10 of the IC50, conventionally taken in molar units. In general, pKi refers to the negative decadic logarithm of the Ki, by convention in mol/L. Read a high pKi as a low Ki.

T1 sequence (O42275 24-633): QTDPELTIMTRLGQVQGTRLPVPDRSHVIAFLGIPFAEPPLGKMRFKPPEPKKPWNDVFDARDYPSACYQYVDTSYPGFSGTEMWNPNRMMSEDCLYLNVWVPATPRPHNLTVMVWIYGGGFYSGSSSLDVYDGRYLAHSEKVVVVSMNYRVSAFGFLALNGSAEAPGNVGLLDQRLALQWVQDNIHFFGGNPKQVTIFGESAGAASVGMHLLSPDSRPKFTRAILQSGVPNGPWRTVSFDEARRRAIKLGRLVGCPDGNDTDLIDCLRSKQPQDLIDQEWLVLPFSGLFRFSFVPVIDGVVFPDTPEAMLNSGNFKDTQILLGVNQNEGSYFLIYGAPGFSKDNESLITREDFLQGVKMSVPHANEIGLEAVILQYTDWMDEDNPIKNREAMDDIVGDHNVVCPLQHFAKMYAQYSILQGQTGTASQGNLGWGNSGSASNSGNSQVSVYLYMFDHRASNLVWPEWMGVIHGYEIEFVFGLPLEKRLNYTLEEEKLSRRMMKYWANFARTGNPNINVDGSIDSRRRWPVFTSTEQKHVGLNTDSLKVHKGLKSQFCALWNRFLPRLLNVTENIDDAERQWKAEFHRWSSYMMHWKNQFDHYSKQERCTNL

Consider `COc1cc2c(cc1OC)C(=O)C(CC1CCN(Cc3ccncc3Cl)CC1)C2` (centres unmarked) [Analog 7, 2-((1-((3-chloropyridin-4-yl)methyl)piperidin-4-yl)methyl)-5,6-dimethoxy-2,3-dihydro-1H-inden-1-one], for which, in assay [1], the pIC50 was 6.44.
`COc1cc2c(cc1OC)C(=O)C(CC1CCN(Cc3ccnc(Br)c3)CC1)C2` (centres unmarked) [Analog 6, 2-((1-((2-bromopyridin-4-yl)methyl)piperidin-4-yl)methyl)-5,6-dimethoxy-2,3-dihydro-1H-inden-1-one] gave a pIC50 in assay [1] of 5.75.
In the case of `COc1cc2c(cc1OC)C(=O)C(CC1CCN(Cc3ccncc3)CC1)C2` (centres unmarked) [Analog 3, 5,6-dimethoxy-2-((1-(pyridin-4-ylmethyl)piperidin-4-yl)methyl)-2,3-dihydro-1H-inden-1-one], the pIC50 in assay [1] was 6.48. This pIC50 is 0.73 log units higher than that of the compound before.
In assay [1], `COc1cc2c(cc1OC)C(=O)C(CC1CCN(Cc3cccnc3F)CC1)C2` (centres unmarked) [Analog 9, 2-((1-((2-fluoropyridin-3-yl)methyl)piperidin-4-yl)methyl)-5,6-dimethoxy-2,3-dihydro-1H-inden-1-one] gave a pIC50 of 6.14.
In assay [1], `COc1cc2c(cc1OC)C(=O)C(CC1CCN(Cc3cccnc3Br)CC1)C2` (centres unmarked) [Analog 11, 2-((1-((2-bromopyridin-3-yl)methyl)piperidin-4-yl)methyl)-5,6-dimethoxy-2,3-dihydro-1H-inden-1-one] had a pIC50 of 5.95.
Same read-out and setting: the figure for `COc1cc2c(cc1OC)C(=O)C(CC1CCN(Cc3cccnc3Cl)CC1)C2` (centres unmarked) [Analog 10, 2-((1-((2-chloropyridin-3-yl)methyl)piperidin-4-yl)methyl)-5,6-dimethoxy-2,3-dihydro-1H-inden-1-one] is 6.38.
In assay [1], `COc1cc2c(cc1OC)C(=O)C(CC1CCN(Cc3ccc(C)nc3)CC1)C2` (centres unmarked) [Analog 12, 5,6-dimethoxy-2-((1-((6-methylpyridin-3-yl)methyl)piperidin-4-yl)methyl)-2,3-dihydro-1H-inden-1-one] had a pIC50 of 6.03.
Regarding `COc1cc2c(cc1OC)C(=O)C(CC1CCN(Cc3cccnc3)CC1)C2` (centres unmarked) [Analog 2, 5,6-dimethoxy-2-((1-(pyridin-3-ylmethyl)piperidin-4-yl)methyl)-2,3-dihydro-1H-inden-1-one], in assay [2], the pKi is 7.21. Moreover, the type of inhibition result in assay [2] (Lineweaver-Burke double reciprocal plot, electric eel AChE) is “mixed-type inhibition”. Moreover, the pIC50 in assay [1] is 7.29.
`COc1cc2c(cc1OC)C(=O)C(CC1CCN(Cc3ccccn3)CC1)C2` (centres unmarked) [Analog 1, 5,6-dimethoxy-2-((1-(pyridin-2-ylmethyl)piperidin-4-yl)methyl)-2,3-dihydro-1H-inden-1-one] gave a pIC50 in assay [1] of 6.10.
For the compound `COc1cc2c(cc1OC)C(=O)C(CC1CCN(Cc3c(Cl)cncc3Cl)CC1)C2` (centres unmarked) [Analog 8, 2-((1-((3,5-dichloropyridin-4-yl)methyl)piperidin-4-yl)methyl)-5,6-dimethoxy-2,3-dihydro-1H-inden-1-one], the pIC50 in assay [1] was 5.36. Against the preceding compound, the pIC50 is 0.74 log units lower.
On the same count and under the same terms, the figure for `COc1cc2c(cc1OC)C(=O)C(CC1CCN(Cc3ccnc(Cl)c3)CC1)C2` (centres unmarked) [Analog 5, 2-((1-((2-chloropyridin-4-yl)methyl)piperidin-4-yl)methyl)-5,6-dimethoxy-2,3-dihydro-1H-inden-1-one] is 5.69; for `COc1cc2c(cc1OC)C(=O)C(CC1CCN(Cc3ccnc4ccccc34)CC1)C2` (centres unmarked) [Analog 4, 5,6-dimethoxy-2-((1-(quinolin-4-ylmethyl)piperidin-4-yl)methyl)-2,3-dihydro-1H-inden-1-one] it is 6.45.
